Like-named read-outs stand apart in the source and are kept apart here.
Target: T1, PIP4K2C (Homo sapiens, UniProt Q8TBX8)
T1 sequence (Q8TBX8 1-421): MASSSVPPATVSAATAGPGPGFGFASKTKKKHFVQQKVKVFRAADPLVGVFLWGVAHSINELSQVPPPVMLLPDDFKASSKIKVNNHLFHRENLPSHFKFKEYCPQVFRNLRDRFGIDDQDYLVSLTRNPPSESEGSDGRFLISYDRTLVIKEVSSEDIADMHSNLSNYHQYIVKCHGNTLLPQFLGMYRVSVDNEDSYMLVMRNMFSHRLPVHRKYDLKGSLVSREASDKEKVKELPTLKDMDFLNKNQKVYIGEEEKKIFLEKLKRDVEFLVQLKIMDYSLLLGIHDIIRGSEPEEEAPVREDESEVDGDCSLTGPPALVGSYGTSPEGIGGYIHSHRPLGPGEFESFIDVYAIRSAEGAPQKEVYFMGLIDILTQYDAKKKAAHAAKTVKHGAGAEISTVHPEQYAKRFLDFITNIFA
Test: HiBiT PIP4K2C degradation assay in MOLT-4 cells (endogenous PIP4K2C C-terminally tagged with HiBiT)
Assay type: cell-based
Parameters: untagged in primary human PBMCs and monocyte-derived dendritic cells
Procedure, shortened: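 MOLT-4 knock-in line, HiBiT on PIP4K2C C-terminus; 22,500 cells/well; 10-pt 3-fold titration from 10 micromolar, n=2; 24 h or 6 h, 37 C, 5% CO2; Nano-Glo HiBiT lytic luminescence; DC50 via Hill equation.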

[1] = 6 hours of incubation time, rather than 24 hours; MOLT-4, top concentration 10 micromolar; read-out: HiBIT-degradation MOLT4 PIP4k2C DC50 (6 hours, marked *)
[2] = read-out: HiBIT-degradation MOLT4 PIP4k2C DC50 (6 hours, marked *); 6 hours of incubation time, rather than 24 hours; MOLT-4, top concentration 10 micromolar

DC50 [1] | DC50 [2] | Structure (SMILES)
< 500 nM | – | O=C1CCC(Nc2ccc(N3CCN([C@H]4CC[C@H](NC(=O)[C@H]5CC[C@H](Nc6ncc(F)c(-c7cccc(-c8ccccc8)c7)n6)CC5)CC4)CC3)c(F)c2)C(=O)N1 (stereo partly drawn) [Compound 662, trans-(1r,4R)-4-((4-([1,1′-biphenyl]-3-yl)-5-fluoropyrimidin-2-yl)amino)-N-((1r,4R)-4-(4-(4-((2,6-dioxopiperidin-3-yl)amino)-2-fluorophenyl)piperazin-1-yl)cyclohexyl)cyclohexane-1-carboxamide]
< 500 nM | – | O=C1CCC(Nc2ccc(C3CCN(C(=O)CC4(O)CCN(C(=O)O[C@H]5CC[C@H](Nc6ncc(F)c(-c7cccc(-n8ccccc8=O)c7)n6)CC5)CC4)CC3)c(F)c2)C(=O)N1 (stereo partly drawn) [Compound 663, trans-4-((5-fluoro-4-(3-(2-oxopyridin-1 (2H)-yl)phenyl)pyrimidin-2-yl)amino)cyclohexyl 4-(2-(4-(4-((2,6-dioxopiperidin-3-yl)amino)-2-fluorophenyl)piperidin-1-yl)-2-oxoethyl)-4-hydroxypiperidine-1-carboxylate]
< 500 nM | – | O=C1CCC(Nc2ccc(N3CCN(C4CCN(C(=O)O[C@H]5CC[C@H](Nc6ncc(F)c(-c7cccc(-c8ccccc8)c7)n6)CC5)CC4)CC3)c(F)c2)C(=O)N1 (stereo partly drawn) [Compound 664, trans-[4-[[5-fluoro-4-(3-phenylphenyl)pyrimidin-2-yl]amino]cyclohexyl]4-[4-[4-[(2,6-dioxo-3-piperidyl)amino]-2-fluoro-phenyl]piperazin-1-yl]piperidine-1-carboxylate]
< 500 nM | – | O=C1CCC(Nc2ccc(C3CCN(CC4(O)CCN(C(=O)[C@H]5CC[C@H](Nc6ncc(F)c(-c7cccc(N8CCOCC8)c7)n6)CC5)CC4)CC3)c(F)c2)C(=O)N1 (stereo partly drawn) [Compound 665, 3-((3-fluoro-4-(1-((1-((trans)-4-((5-fluoro-4-(3-morpholinophenyl)pyrimidin-2-yl)amino)cyclohexane-1-carbonyl)-4-hydroxypiperidin-4-yl)methyl)piperidin-4-yl)phenyl)amino)piperidine-2,6-dione]
< 500 nM | – | O=C1CCC(Nc2ccc(C3CCN(C4CC5(C4)CN(C(=O)O[C@H]4CC[C@H](Nc6ncc(F)c(-c7cccc(-n8ccccc8=O)c7)n6)CC4)C5)CC3)c(F)c2)C(=O)N1 (stereo partly drawn) [Compound 666, (trans)-4-((5-fluoro-4-(3-(2-oxopyridin-1 (2H)-yl)phenyl)pyrimidin-2-yl)amino)cyclohexyl 6-(4-(4-((2,6-dioxopiperidin-3-yl)amino)-2-fluorophenyl)piperidin-1-yl)-2-azaspiro[3.3]heptane-2-carboxylate]
< 500 nM | – | O=C1CCC(Nc2ccc(N3CCN(C[C@H]4CC[C@H](C(=O)N5CCC(Nc6ncc(F)c(-c7cccc(N8CCCOC8=O)c7)n6)CC5)CC4)CC3)c(F)c2)C(=O)N1 (stereo partly drawn) [Compound 667, 3-((3-fluoro-4-(4-((trans-4-(4-((5-fluoro-4-(3-(2-oxo-1,3-oxazinan-3-yl)phenyl)pyrimidin-2-yl)amino)piperidine-1-carbonyl)cyclohexyl)methyl)piperazin-1-yl)phenyl)amino)piperidine-2,6-dione]
> 5000 nM | – | O=C1CCC(Nc2ccc(N3CCC(N4CCN(C(=O)O[C@H]5CC[C@H](Nc6ncc(F)c(-c7cccc(-n8ccccc8=O)c7)n6)CC5)CC4)C(F)C3)c(F)c2)C(=O)N1 (stereo partly drawn) [Compound 668, trans-[4-[[5-fluoro-4-[3-(2-oxo-1-pyridyl)phenyl]pyrimidin-2-yl]amino]cyclohexyl]4-[1-[4-[(2,6-dioxo-3-piperidyl)amino]-2-fluoro-phenyl]-3-fluoro-4-piperidyl]piperazine-1-carboxylate]
< 500 nM | – | O=C1CCC(Nc2ccc(C3CCN(C(=O)C4CCN(C(=O)[C@H]5CC[C@H](Nc6ncc(F)c(-c7cccc(-n8ccccc8=O)c7)n6)CC5)CC4)CC3)c(F)c2)C(=O)N1 (stereo partly drawn) [Compound 669, trans-3-((3-fluoro-4-(1-(1-(4-((5-fluoro-4-(3-(2-oxopyridin-1 (2H)-yl)phenyl)pyrimidin-2-yl)amino)cyclohexane-1-carbonyl)piperidine-4-carbonyl)piperidin-4-yl)phenyl)amino)piperidine-2,6-dione]
– | > 5000 nM | O=C1CCC(Nc2ccc(N3CCN(C[C@H]4CC[C@H](C(=O)N5CCC(Nc6ncc(F)c(-c7cccc(N8CCOCC8)c7)n6)CC5)CC4)CC3)c(F)c2)C(=O)N1 (stereo partly drawn) [Compound 670, 3-((3-fluoro-4-(4-((trans-4-(4-((5-fluoro-4-(3-morpholinophenyl)pyrimidin-2-yl)amino)piperidine-1-carbonyl)cyclohexyl)methyl)piperazin-1-yl)phenyl)amino) piperidine-2,6-dione]
< 500 nM | – | O=C1CCC(Nc2ccc(C3CCN(C[C@H]4CC[C@H](C(=O)N5CCC(Nc6ncc(F)c(-c7cccc(N8CCOCC8)c7)n6)CC5)CC4)CC3)c(F)c2)C(=O)N1 (stereo partly drawn) [Compound 671, trans-3-((3-fluoro-4-(1-((4-(4-((5-fluoro-4-(3-morpholinophenyl)pyrimidin-2-yl)amino)piperidine-1-carbonyl)cyclohexyl)methyl)piperidin-4-yl)phenyl)amino)piperidine-2,6-dione]
< 500 nM | – | O=C1CCC(Nc2ccc(C3CCN(CC4CCN(C(=O)[C@H]5CC[C@H](Nc6ncc(F)c(-c7cccc(N8CCOCC8)c7)n6)CC5)CC4)CC3)c(F)c2)C(=O)N1 (stereo partly drawn) [Compound 672, trans-3-((3-fluoro-4-(1-((1-(4-((5-fluoro-4-(3-morpholinophenyl)pyrimidin-2-yl)amino)cyclohexane-1-carbonyl)piperidin-4-yl)methyl)piperidin-4-yl)phenyl)amino)piperidine-2,6-dione]
< 500 nM | – | O=C1CCC(Nc2ccc(N3CCN(C4CCN(C(=O)O[C@H]5CC[C@H](Nc6ncc(F)c(-c7cccc(N8CCOCC8)c7)n6)CC5)CC4)CC3)c(F)c2)C(=O)N1 (stereo partly drawn) [Compound 673, trans-4-((5-fluoro-4-(3-morpholinophenyl)pyrimidin-2-yl)amino)cyclohexyl 4-(4-(4-((2,6-dioxopiperidin-3-yl)amino)-2-fluorophenyl)piperazin-1-yl)piperidine-1-carboxylate]
< 500 nM | – | O=C1CCC(Nc2ccc(N3CCN(C4CCN(C(=O)O[C@H]5CC[C@H](Nc6ncc(F)c(-c7cccc(N8CCCOC8=O)c7)n6)CC5)CC4)CC3)c(F)c2)C(=O)N1 (stereo partly drawn) [Compound 674, trans-4-((5-fluoro-4-(3-(2-oxo-1,3-oxazinan-3-yl)phenyl)pyrimidin-2-yl)amino)cyclohexyl 4-(4-(4-((2,6-dioxopiperidin-3-yl)amino)-2-fluorophenyl)piperazin-1-yl)piperidine-1-carboxylate]
– | < 500 nM | O=C1CCC(Nc2ccc(N3CCN(C4CCN(C(=O)O[C@H]5CC[C@H](Nc6ncc(F)c(-c7cccc(N8CCCCC8=O)c7)n6)CC5)CC4)CC3)c(F)c2)C(=O)N1 (stereo partly drawn) [Compound 675, trans-4-((5-fluoro-4-(3-(2-oxopiperidin-1-yl)phenyl)pyrimidin-2-yl)amino)cyclohexyl 4-(4-(4-((2,6-dioxopiperidin-3-yl)amino)-2-fluorophenyl)piperazin-1-yl)piperidine-1-carboxylate]
< 500 nM | – | O=C1CCC(Nc2ccc(C3CCN(C4CCN(C(=O)O[C@H]5CC[C@H](Nc6ncc(F)c(-c7cccc(N8CCOCC8)c7)n6)CC5)CC4)CC3)c(F)c2)C(=O)N1 (stereo partly drawn) [Compound 676, trans-4-((5-fluoro-4-(3-morpholinophenyl)pyrimidin-2-yl)amino)cyclohexyl 4-(4-((2,6-dioxopiperidin-3-yl)amino)-2-fluorophenyl)-[1,4′-bipiperidine]-1′-carboxylate]
< 500 nM | – | O=C1CCC(Nc2ccc(C3CCN(C4CCN(C(=O)O[C@H]5CC[C@H](Nc6ncc(F)c(-c7cccc(N8CCCOC8=O)c7)n6)CC5)CC4)CC3)c(F)c2)C(=O)N1 (stereo partly drawn) [Compound 677, trans-4-((5-fluoro-4-(3-(2-oxo-1,3-oxazinan-3-yl)phenyl)pyrimidin-2-yl)amino)cyclohexyl 4-(4-((2,6-dioxopiperidin-3-yl)amino)-2-fluorophenyl)-[1,4′-bipiperidine]-1′-carboxylate]
< 500 nM | – | O=C1CCC(Nc2ccc(C3CCN(C4CCN(C(=O)O[C@H]5CC[C@H](Nc6ncc(F)c(-c7cccc(N8CCCCC8=O)c7)n6)CC5)CC4)CC3)c(F)c2)C(=O)N1 (stereo partly drawn) [Compound 678, trans-4-((5-fluoro-4-(3-(2-oxopiperidin-1-yl)phenyl)pyrimidin-2-yl)amino)cyclohexyl 4-(4-((2,6-dioxopiperidin-3-yl)amino)-2-fluorophenyl)-[1,4′-bipiperidine]-1′-carboxylate]
< 500 nM | – | Cn1nc(C2CCC(=O)NC2=O)c2ccc(C3CCN(C[C@H]4CC[C@H](OC(=O)N5CCC(Nc6ncc(F)c(-c7cccc(-n8ccccc8=O)c7)n6)CC5)CC4)CC3)cc21 (stereo partly drawn) [Compound 679, trans-4-((4-(3-(2,6-dioxopiperidin-3-yl)-1-methyl-1H-indazol-6-yl)piperidin-1-yl)methyl)cyclohexyl 4-((5-fluoro-4-(3-(2-oxopyridin-1 (2H)-yl)phenyl)pyrimidin-2-yl)amino)piperidine-1-carboxylate]

— patent US20260355196A1, “INHIBITORS AND DEGRADERS OF PIP4K PROTEIN” (Larkspur Biosciences, Inc., priority 2023, published 2026)
